# Measurements from the supplement of paper PMC10307832.
# Experiments:
# Test in all cases: relative viability (nuclei count vs DMSO), 5 days (fraction); higher = more cells survive
# [1] = compound: C1CSC2=C(C(=O)N1)SC3=C2C=C(C=C3)O [kb NB 142-70] + C[C@@H](Oc1cc(-c2cnn(C3CCNCC3)c2)cnc1N)c1c(Cl)ccc(F)c1Cl [Crizotinib] (partner 1 µM)
# In short: (§1)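 Relative viability equals treated-well nuclei counts divided by vehicle-well nuclei counts. Counts came from 4× images of lung cancer cell lines grown in 1536-well plates for 5 days after pin-tool dosing on the day after seeding. Dosing used one drug alone or a fixed anchor-drug dose plus five library-drug doses (not always all listed) in √10 steps, and values are medians of duplicate plates.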
# [2] = compound: C1CSC2=C(C(=O)N1)SC3=C2C=C(C=C3)O [kb NB 142-70] + C[C@]1(O)C[C@@H](c2nc(-c3ccc4ccc(-c5ccccc5)nc4c3)c3c(N)nccn32)C1 [Linsitinib] (partner 1 µM)
# In short: as §1
# [3] = compound: C1CSC2=C(C(=O)N1)SC3=C2C=C(C=C3)O [kb NB 142-70] + CS(=O)(=O)N1CCN(Cc2cc3nc(-c4cccc5[nH]ncc45)nc(N4CCOCC4)c3s2)CC1 [Pictilisib] (partner 1 µM)
# In short: as §1
# [4] = compound: C1CSC2=C(C(=O)N1)SC3=C2C=C(C=C3)O [kb NB 142-70] + Cc1cc(Nc2cc(N3CCN(C)CC3)nc(Sc3ccc(NC(=O)C4CC4)cc3)n2)n[nH]1 [Tozasertib] (partner 0.1 µM)
# In short: as §1
# [5] = compound: NCC(=O)Nc1ccc(-n2nc(C(F)(F)F)cc2-c2ccc3c(ccc4ccccc43)c2)cc1 + CC1(C)CCC(c2ccc(Cl)cc2)=C(CN2CCN(c3ccc(C(=O)NS(=O)(=O)c4ccc(N[C@H](CCN5CCOCC5)CSc5ccccc5)c(S(=O)(=O)C(F)(F)F)c4)cc3)CC2)C1 [Navitoclax] (partner 0.5 µM)
# In short: as §1
# kb NB 142-70 + OSI-027 = compound: C1CSC2=C(C(=O)N1)SC3=C2C=C(C=C3)O [kb NB 142-70] + COc1cccc2cc(-c3nc([C@H]4CC[C@H](C(=O)O)CC4)n4ncnc(N)c34)[nH]c12 [OSI-027] (partner 0.5 µM)
# In short: as §1
Cell Line,relative viability ([1]; first compound 0.1 µM),relative viability ([1]; first compound 1 µM),relative viability ([1]; first compound 3.162 µM),relative viability ([2]; first compound 0.1 µM),relative viability ([2]; first compound 1 µM),relative viability ([2]; first compound 3.162 µM),relative viability ([3]; first compound 0.1 µM),relative viability ([3]; first compound 1 µM),relative viability ([3]; first compound 3.162 µM),relative viability ([4]; first compound 0.1 µM),relative viability ([4]; first compound 1 µM),relative viability ([4]; first compound 3.162 µM),relative viability ([5]; first compound 0.02 µM),relative viability ([5]; first compound 0.06325 µM),relative viability ([5]; first compound 0.2 µM),relative viability ([5]; first compound 0.6325 µM),relative viability ([5]; first compound 2 µM),relative viability (kb NB 142-70 + OSI-027; first compound 0.1 µM),relative viability (kb NB 142-70 + OSI-027; first compound 1 µM),relative viability (kb NB 142-70 + OSI-027; first compound 3.162 µM)
HCC-366,0.533,0.633,0.463,0.658,0.462,0.214,0.13,0.127,0.092,0.122,0.176,0.118,1.15,1.04,1.02,1.03,1.16,1.04,0.894,0.742
HCC-827,0.918,0.947,0.921,0.921,0.992,0.902,0.832,1.13,0.781,0.418,0.429,0.367,0.992,1.04,1.06,1.06,1.01,0.775,0.759,0.775
HOP-62,0.869,1.02,1.03,0.996,0.906,0.945,0.736,0.606,0.73,0.314,0.315,0.245,1.06,1.01,0.996,0.91,1.08,0.868,0.751,0.699
LC-2-ad,0.446,0.429,0.421,0.791,0.825,0.677,0.508,0.545,0.311,0.451,0.428,0.341,0.456,0.44,0.484,0.492,0.535,0.779,0.842,0.699
LCLC-97TM1,0.382,0.331,0.201,0.192,0.187,0.172,0.216,0.232,0.236,0.197,0.207,0.149,0.321,0.422,,0.359,0.393,0.635,0.407,0.237
LK-2,0.225,0.226,0.204,0.751,0.384,0.245,0.483,0.42,0.183,0.168,0.167,0.189,1.02,0.862,0.961,0.853,0.757,0.19,0.163,0.163
LOU-NH91,0.75,0.732,0.644,0.911,0.882,0.612,0.526,0.505,0.41,0.599,0.557,0.338,0.74,0.755,0.722,0.673,0.804,0.699,0.695,0.651
LU99A,0.577,0.506,0.397,0.519,0.518,0.341,0.305,0.294,0.298,0.285,0.237,0.195,0.756,0.799,0.87,0.891,0.824,0.325,0.327,0.317
LXF-289,0.776,0.796,0.744,0.914,0.92,0.916,0.739,0.737,0.749,0.173,0.192,0.181,0.918,0.977,0.943,0.954,0.861,0.737,0.695,0.681
NCI-H23,0.502,0.522,0.253,0.708,0.529,0.289,0.517,0.42,0.293,0.381,0.37,0.241,0.821,0.847,0.801,0.903,0.855,0.632,0.572,0.412
NCI-H322M,1,1.1,1,0.89,1.03,0.938,0.54,0.561,0.504,0.464,0.519,0.45,1.18,1.18,1.34,1.18,1.1,0.489,0.551,0.498
NCI-H441,0.958,0.64,0.433,0.656,0.457,0.356,0.497,0.429,0.305,0.663,0.581,0.302,0.521,0.577,0.654,0.627,0.539,0.556,0.58,0.277
NCI-H460,0.766,0.801,0.326,0.704,1,0.277,0.363,0.323,0.274,0.541,0.397,0.254,1.17,1.11,1.13,1.07,1.06,0.677,0.576,0.315
NCI-H520,0.869,0.825,0.507,0.874,0.972,0.641,0.297,0.282,0.165,0.45,0.517,0.37,0.979,1.17,1.34,1.05,1.08,0.262,0.226,0.25
NCI-H596,1.03,1.03,0.933,1.13,1.02,0.837,0.399,0.351,0.352,0.804,0.881,0.749,0.593,0.968,1.04,1.1,0.841,0.931,0.773,0.509
